From ChEMBL document CHEMBL2074292, “Isolation, characterization and differential gene expression of multispecific organic anion transporter 2 in mice” (Mol Pharmacol, 2002)
Values belong to the molecule of their own block, whether it stands above or below them.

What was measured:
[1] = target: T1, Solute carrier family 22 member 7 (Mus musculus, UniProt Q91WU2); assay: (§1) TP_TRANSPORTER: uptake in Xenopus laevis oocytes; type: functional, cell-based; settings: oocyte
T1 sequence (Q91WU2 whole entry): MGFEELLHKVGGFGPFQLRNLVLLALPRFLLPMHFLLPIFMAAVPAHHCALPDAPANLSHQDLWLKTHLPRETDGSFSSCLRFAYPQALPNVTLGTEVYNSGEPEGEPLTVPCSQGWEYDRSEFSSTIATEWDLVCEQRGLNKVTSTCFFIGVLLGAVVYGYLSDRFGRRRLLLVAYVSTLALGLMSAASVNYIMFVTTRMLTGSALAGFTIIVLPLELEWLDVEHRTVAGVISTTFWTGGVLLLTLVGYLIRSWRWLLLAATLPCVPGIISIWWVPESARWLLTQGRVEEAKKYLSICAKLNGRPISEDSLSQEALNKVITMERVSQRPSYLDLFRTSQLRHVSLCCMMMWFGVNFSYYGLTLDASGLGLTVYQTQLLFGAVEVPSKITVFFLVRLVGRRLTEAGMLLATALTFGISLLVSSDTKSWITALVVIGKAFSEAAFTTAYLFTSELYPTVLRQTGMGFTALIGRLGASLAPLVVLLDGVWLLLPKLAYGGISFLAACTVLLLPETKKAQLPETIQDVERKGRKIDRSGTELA

[2] = target: T1, Solute carrier family 22 member 7; assay: TP_TRANSPORTER: inhibition of Glutarate uptake (Glutarate: 5 uM, Cefoperazone: 1000 uM) in Xenopus laevis oocytes; type: functional, cell-based; settings: oocyte
[3] = target: T1, Solute carrier family 22 member 7; assay: TP_TRANSPORTER: inhibition of Glutarate uptake (Glutarate: 5 uM, Oxaloacetate: 1000 uM) in Xenopus laevis oocytes; type: functional, cell-based; settings: oocyte
[4] = target: T1, Solute carrier family 22 member 7; assay: TP_TRANSPORTER: inhibition of Glutarate uptake (Glutarate: 5 uM, Enalapril: 1000 uM) in Xenopus laevis oocytes; type: functional, cell-based; settings: oocyte
[5] = target: T1, Solute carrier family 22 member 7; assay: TP_TRANSPORTER: inhibition of Glutarate uptake (Glutarate: 5 uM, ICG: 1000 uM) in Xenopus laevis oocytes; type: functional, cell-based; settings: oocyte
[6] = target: T1, Solute carrier family 22 member 7; assay: TP_TRANSPORTER: inhibition of Glutarate uptake (Glutarate: 5 uM, Erythromycin: 1000 uM) in Xenopus laevis oocytes; type: functional, cell-based; settings: oocyte
[7] = target: T1, Solute carrier family 22 member 7; assay: TP_TRANSPORTER: inhibition of Glutarate uptake (Glutarate: 5 uM, BSP: 250 uM) in Xenopus laevis oocytes; type: functional, cell-based; settings: oocyte
[8] = substrate: CCCCC[C@H](O)/C=C/[C@H]1[C@H](O)CC(=O)[C@@H]1C/C=C\CCCC(=O)O; assay: as §1; type: functional, cell-based, Oocyte
[9] = substrate: O=C(O)CCCC(=O)O; assay: as §1; type: functional, cell-based, Oocyte

- Activity [1]: substrate [+]
Molecule: Nc1ccc(C(=O)NCC(=O)O)cc1 [AMINOHIPPURIC ACID]

- Activity [1]: substrate [+]
Molecule: CCCC(CCC)C(=O)O [VALPROIC ACID]

Molecule: CCN1CCN(C(=O)N[C@@H](C(=O)N[C@@H]2C(=O)N3C(C(=O)O)=C(CSc4nnnn4C)CS[C@H]23)c2ccc(O)cc2)C(=O)C1=O [CEFOPERAZONE]
- Activity [2]: inhibitor [(at a rough estimate) 40 % of control]

Molecule: O=C(O)c1ccccc1O [SALICYLIC ACID]
- Activity [1]: is not a substrate [-]

Molecule: O=C(O)CC(=O)C(=O)O [OXALOACETATE]
- Activity [3]: inhibitor [(at a rough estimate) 45 % of control]

- Activity [1]: substrate [+]
Molecule: O=C(O)CCC(=O)C(=O)O [ALPHA-KETOGLUTARIC ACID]

Molecule: CCOC(=O)[C@H](CCc1ccccc1)N[C@@H](C)C(=O)N1CCC[C@H]1C(=O)O [ENALAPRIL]
- Activity [4]: inhibitor [(at a rough estimate) 30 % of control]

Molecule: Oc1ncnc2[nH]ncc12 [ALLOPURINOL]
- Activity [1]: substrate [+]

Molecule: CC1(C)C(/C=C/C=C/C=C/C=C2/N(CCCCS(=O)(=O)[O-])c3ccc4ccccc4c3C2(C)C)=[N+](CCCCS(=O)(=O)[O-])c2ccc3ccccc3c21.[Na+] [INDOCYANINE GREEN]
- Activity [5]: inhibitor [(at a rough estimate) 30 % of control]

Molecule: C[C@@H]1Cc2c(Cl)cc(C(=O)N[C@@H](Cc3ccccc3)C(=O)O)c(O)c2C(=O)O1 [3R14S-OCHRATOXIN A]
- Activity [1]: substrate [+]

Molecule: CC[C@H]1OC(=O)[C@H](C)[C@@H](O[C@H]2C[C@@](C)(OC)[C@@H](O)[C@H](C)O2)[C@H](C)[C@@H](O[C@@H]2O[C@H](C)C[C@H](N(C)C)[C@H]2O)[C@](C)(O)C[C@@H](C)C(=O)[C@H](C)[C@@H](O)[C@]1(C)O [ERYTHROMYCIN]
- Activity [6]: inhibitor [(at a rough estimate) 20 % of control]

Molecule: O=C1OC(c2ccc(O)c(S(=O)(=O)[O-])c2)(c2ccc(O)c(S(=O)(=O)[O-])c2)c2c(Br)c(Br)c(Br)c(Br)c21.[Na+].[Na+] [SULFOBROMOPHTHALEIN SODIUM]
- Activity [7]: inhibitor [(at a rough estimate) 25 % of control]

B1: Solute carrier family 22 member 7 (Mus musculus) (protein)
chain: MGFEELLHKVGGFGPFQLRNLVLLALPRFLLPMHFLLPIFMAAVPAHHCALPDAPANLSHQDLWLKTHLPRETDGSFSSCLRFAYPQALPNVTLGTEVYNSGEPEGEPLTVPCSQGWEYDRSEFSSTIATEWDLVCEQRGLNKVTSTCFFIGVLLGAVVYGYLSDRFGRRRLLLVAYVSTLALGLMSAASVNYIMFVTTRMLTGSALAGFTIIVLPLELEWLDVEHRTVAGVISTTFWTGGVLLLTLVGYLIRSWRWLLLAATLPCVPGIISIWWVPESARWLLTQGRVEEAKKYLSICAKLNGRPISEDSLSQEALNKVITMERVSQRPSYLDLFRTSQLRHVSLCCMMMWFGVNFSYYGLTLDASGLGLTVYQTQLLFGAVEVPSKITVFFLVRLVGRRLTEAGMLLATALTFGISLLVSSDTKSWITALVVIGKAFSEAAFTTAYLFTSELYPTVLRQTGMGFTALIGRLGASLAPLVVLLDGVWLLLPKLAYGGISFLAACTVLLLPETKKAQLPETIQDVERKGRKIDRSGTELA
- Km [8]: 0.0052 µM
- Km [9]: 15.8 µM
